Experimental data: patent US12655139B2, “Isoxazolidines as RIPK1 inhibitors and use thereof” (SANOFI, priority 2020, dated 2026)
Read-outs that look alike come from different tables or passages of the source.

Legend:
U937 cells = test: Cellular assay in U937 cells on cell death (necroptosis), TNFα/zVAD.fmk; format: cell-based; details: read-out: U937 IC50
Summary of the method: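 U937 cells with 100 ng/ml TNFα plus 50 μM zVAD.fmk (pre-addition suspension levels) received 10 compound concentrations (10 μM–0.26 nM or 1 μM–0.07 nM) for 18–24 h at 37 °C. Live cells were read by MTS formazan absorbance at 490 nm after 4 h. % inhibition is relative to the maximal value without TNFα/zVAD.fmk.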

[1] = molecular target: T1, hRIPK1 (aa 1-375) fusion protein (Homo sapiens, UniProt Q13546); test: ADP-Glo kinase assay, RIPK1 autophosphorylation; format: biochemical; details: Table 1
T1 construct: hRIPK1 (aa 1-375) fusion protein
T1 sequence (Q13546 1-375): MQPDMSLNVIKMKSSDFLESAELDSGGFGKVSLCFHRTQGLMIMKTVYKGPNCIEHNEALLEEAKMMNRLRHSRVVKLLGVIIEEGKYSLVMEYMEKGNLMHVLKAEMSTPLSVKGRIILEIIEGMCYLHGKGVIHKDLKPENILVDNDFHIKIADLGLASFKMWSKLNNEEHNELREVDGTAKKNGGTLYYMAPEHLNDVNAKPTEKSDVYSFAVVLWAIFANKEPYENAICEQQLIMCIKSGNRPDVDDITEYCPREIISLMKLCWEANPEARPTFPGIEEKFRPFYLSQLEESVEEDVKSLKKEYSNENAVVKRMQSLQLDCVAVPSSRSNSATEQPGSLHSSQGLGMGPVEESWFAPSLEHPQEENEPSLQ
Description: Evaluation of Receptor-Interacting Protein Kinase 1 Inhibition.
The catalytic activity of RIPK1 was measured by monitoring the conversion of Adenosine triphosphate (ATP) to Adenosine diphosphate (ADP) due to autophosphorylation using an ADP-Glo kinase kit (Promega, catalog no. V9104).
After another 240 minutes incubation at room temperature, 5 μl Promega ADP-Glo reagent I were added to quench the reaction and deplete unconsumed ATP. After an incubation period of 30 minutes, 10 μl Promega ADP-Glo detection reagent II were added resulting in conversion of ADP to ATP, which generates a light-reaction between luciferase and luciferin. Luminescence was quantified after 30 minutes with a Pherastar FS (BMG LABTECH, Ortenberg).
The adjustment was obtained by nonlinear regression using the Levenberg Marquardt algorithm.

SMILES | IC50 [1] [µM] | IC50 (U937 cells; Homo sapiens, U-937, Table 2) [µM] | IC50 (U937 cells; Table 2) [µM]
Cc1cncc([C@@H]2CCON2C(=O)C2CCN(c3ncc(C)c(C(N)=O)n3)CC2)n1 [Ex. 097] | 0.024 | 0.0415 | 
Cc1cnc(N2CCC(C(=O)N3OCC[C@H]3c3cnccn3)CC2)nc1C(N)=O [Ex. 99] | 0.0223 | 0.054 | 
N#Cc1ccc([C@@H]2CCON2C(=O)C2CCN(c3ncc(F)c(C(N)=O)n3)CC2)nc1 [Ex. 106] | 0.0429 | 0.548 | 
N#Cc1ccc([C@@H]2CCON2C(=O)C2CCN(c3cc(C(N)=O)ncn3)CC2)nc1 [Ex. 107] | 0.364 | 7.52 | 
N#Cc1ccc([C@@H]2CCON2C(=O)C2CCN(c3nccc(C(N)=O)n3)CC2)nc1 [Ex. 108] | 0.0816 | 1.01 | 
N#Cc1cncc([C@@H]2CCON2C(=O)C2CCN(c3ncc(F)c(C#N)n3)CC2)c1 [Ex. 111] | 0.0282 | 0.0116 | 
Cc1nsc(N2CCC(C(=O)N3OCC[C@H]3c3cncc(C#N)c3)CC2)n1 [Ex. 113] | 0.122 | 0.773 | 
N#Cc1cncc([C@@H]2CCON2C(=O)C2(F)CCN(c3nccc(C(N)=O)n3)CC2(F)F)c1 (some centres unmarked) [Ex. 115] | 0.0247 | 0.0627 | 
N#Cc1cncc([C@@H]2CCON2C(=O)C2CCN(c3cnc(Cl)nc3C(=O)O)CC2)c1 [Ex. 121] | > 33 | 4.44 | 
N#Cc1cncc([C@@H]2CCON2C(=O)C2CCN(c3ccnc(C(N)=O)n3)CC2)c1 [Ex. 156] | 0.297 | 0.927 | 
N#Cc1cncc([C@@H]2CCON2C(=O)C2CCN(c3ccnc(Br)n3)CC2)c1 [Ex. 157] | 0.0439 | 0.114 | 
N#Cc1cncc([C@@H]2CCON2C(=O)C2CCN(c3cc(Cl)ncn3)CC2)c1 [Ex. 159] | 0.0318 | 0.0771 | 
O=C(O)c1nc(Cl)ncc1N1CCC(C(=O)N2OCC[C@H]2c2cnccn2)CC1 [Ex. 164] | 17.5 | 1.97 | 
N#Cc1cncc([C@@H]2CCON2C(=O)C2CCN(c3cc(Br)ncn3)CC2)c1 [Ex. 165] | 0.025 | 0.0527 | 
N#Cc1cc([C@@H]2CCON2C(=O)C2CCN(c3ncc(F)c(C(N)=O)n3)CC2)cs1 [Ex. 166] | 0.0372 | 0.0597 | 
N#Cc1cc([C@@H]2CCON2C(=O)C2CCN(c3ncc(F)c(C(N)=O)n3)CC2)co1 [Ex. 167] | 0.0311 | 0.048 | 
N#Cc1cc([C@@H]2CCON2C(=O)C2CCN(c3nccc(C(N)=O)n3)CC2)cs1 [Ex. 168] | 0.0454 | 0.0792 | 
N#Cc1cc([C@@H]2CCON2C(=O)C2CCN(c3nccc(C(N)=O)n3)CC2)co1 [Ex. 171] | 0.0519 | 0.0858 | 
NC(=O)c1nc(N2CCC(C(=O)N3OCC[C@H]3c3ccccn3)CC2)ncc1F [Ex. 175] | 0.0223 | 0.0446 | 
N#Cc1cc([C@@H]2CCON2C(=O)C2CCN(c3ncc(F)c(C(N)=O)n3)CC2)cnn1 [Ex. 178] | 0.112 | 1.3 | 
Cc1nc(Cl)nc(N2CCC(C(=O)N3OCC[C@H]3c3cnccn3)CC2)n1 [Ex. 180] | 0.032 | 1.05 | 
N#Cc1nc([C@@H]2CCON2C(=O)C2CCN(c3ncc(F)c(C(N)=O)n3)CC2)cs1 [Ex. 189] | 0.0303 | 0.102 | 
N#Cc1cncc([C@@H]2CCON2C(=O)C2CCN(c3nccc(C(N)=O)n3)CC2)c1 [compound 4] | 0.0238 | 0.0221 | 
CC1(CCNC(=O)c2ccnc(N3CCC(C(=O)N4OCC[C@H]4c4cncc(C#N)c4)CC3)n2)CC1 [compound 77, 2-[4-[(3S)-3-(5-cyano-3-pyridyl)isoxazolidine-2-carbonyl]-1-piperidyl]-N-[2-(1-methylcyclo-propyl)ethyl]pyrimidine-4-carboxamide] | 0.0281 | 0.0385 | 
CC(C)(C)OC(=O)N1CC(NC(=O)c2ccnc(N3CCC(C(=O)N4OCC[C@H]4c4cncc(C#N)c4)CC3)n2)C1 [compound 78, Tert-butyl 3-[[2-[4-[(3S)-3-(5-cyano-3-pyridyl)isoxazolidine-2-carbonyl]-1-piperidyl]pyrimidine-4-carbonyl]amino]azetidine-1-carboxylate] | 0.0529 | 0.316 | 

More lines, in order of falling IC50 [1], values ahead:

IC50 [1] [µM] | SMILES | IC50 (U937 cells; Homo sapiens, U-937, Table 2) [µM] | IC50 (U937 cells; Table 2) [µM]
0.0219 | N#Cc1cncc([C@@H]2CCON2C(=O)C2CCN(c3ncc(F)c(C(N)=O)n3)CC2F)c1 (some centres unmarked) [Ex. 154] |  | 0.0388
0.0217 | Cc1nc([C@@H]2CCON2C(=O)C2CCN(c3ncc(F)c(C(N)=O)n3)CC2)cs1 [Ex. 170] | 0.0165 | 
0.0214 | COc1nc(N2CCC(C(=O)N3OCC[C@H]3c3cncc(C)n3)CC2)ncc1F [Ex. 116] | 0.0045 | 
0.0211 | N#Cc1cncc([C@@H]2CCON2C(=O)C2CCN(c3ncc(F)c(C(N)=O)n3)CC2)n1 [compound 119] | 0.00555 | 
0.0193 | Cc1cc([C@@H]2CCON2C(=O)C2CCN(c3cc(C(N)=O)ncn3)CC2)co1 [Ex. 109] | 0.00531 | 
0.0175 | CSc1nc(N2CCC(C(=O)N3OCC[C@H]3c3cncc(C#N)c3)CC2)ncc1F [Ex. 103, 5-[(3S)-2-[1-(5-Fluoro-4-methylsulfanyl-pyrimidin-2-yl)piperidine-4-carbonyl]isoxazolidin-3-yl]pyridine-3-carbonitrile] | 0.00144 | 
0.0173 | Cc1cc([C@@H]2CCON2C(=O)C2CCN(c3nccc(C(N)=O)n3)CC2)co1 [compound 110, (S)-2-(4-(3-(5-methylfuran-3-yl)isoxazolidine-2-carbonyl)piperidin-1-yl)pyrimidine-4-carboxamide] | 0.00169 | 
0.0165 | N#Cc1cncc([C@@H]2CCON2C(=O)C2CCN(c3ncc(F)c(C(N)=O)n3)CC2F)c1 (some centres unmarked) [Ex. 155] |  | 0.00406
0.0149 | Cc1cnc([C@@H]2CCON2C(=O)C2CCN(c3cc(C#N)ncn3)CC2)cn1 [compound 91, 6-[4-[(3S)-3-(5-methylpyrazin-2-yl)isoxazolidine-2-carbonyl]-1-piperidyl]pyrimidine-4-carbonitrile] | 0.183 | 
0.0147 | N#Cc1cncc([C@@H]2CCON2C(=O)C2CCN(c3ncc(F)c(C(N)=O)n3)CC2)c1 [compound 68] | 0.00325 | 
0.014 | COc1nc(N2CCC(C(=O)N3OCC[C@H]3c3cncc(C#N)c3)CC2)ncc1F [Ex. 114] | 0.00785 | 
0.0137 | Cc1cnc(N2CCC(C(=O)N3OCC[C@H]3c3cncc(F)c3)CC2)nc1C(N)=O [Ex. 098] | 0.0325 | 
0.0134 | C[S+]([O-])c1nc(N2CCC(C(=O)N3OCC[C@H]3c3cncc(C#N)c3)CC2)ncc1F (some centres unmarked) [Ex. 104] | 0.736 | 
0.0126 | Cc1cnc([C@@H]2CCON2C(=O)C2CCN(c3ncc(F)c(C(N)=O)n3)CC2)cn1 [compound 90, 5-fluoro-2-[4-[(3S)-3-(5-methylpyrazin-2-yl)isoxazolidine-2-carbonyl]-1-piperidyl]pyrimidine-4-carboxamide] | 0.0381 | 
0.0112 | CS(=O)(=O)c1nc(N2CCC(C(=O)N3OCC[C@H]3c3cncc(C#N)c3)CC2)ncc1F [Ex. 105] | 7.94 | 
0.00931 | Cc1cncc([C@@H]2CCON2C(=O)C2CCN(c3nccc(C(N)=O)n3)CC2)n1 [compound 44] | 0.00847 | 
0.00846 | NC(=O)c1nc(N2CCC(C(=O)N3OCC[C@H]3c3cnccn3)CC2)ncc1F [compound 75] | 0.00273 | 
0.00326 | Nc1nc(Cl)nc(N2CCC(C(=O)N3OCC[C@H]3c3cnccn3)CC2)n1 [Ex. 184] | 0.00179 | 
